Assay results taken from US12152038B2, “Vasopressin receptor antagonists and products and methods related thereto” (Neumora Therapeutics, Inc., priority 2017, dated 2024).

target: T1, human Arginine Vasopressin Receptor 1b (AVPR1b) (Homo sapiens, UniProt P47901); test: Vasopressin V1b receptor antagonist assay (FLIPR calcium, CHO-AVPR1b cells); assay type: cell-based
T1 construct: expressed in transfected cells; host or cells: CHO (CHO-AVPR1b, kept under G418 selection)
T1 sequence (P47901 1-424): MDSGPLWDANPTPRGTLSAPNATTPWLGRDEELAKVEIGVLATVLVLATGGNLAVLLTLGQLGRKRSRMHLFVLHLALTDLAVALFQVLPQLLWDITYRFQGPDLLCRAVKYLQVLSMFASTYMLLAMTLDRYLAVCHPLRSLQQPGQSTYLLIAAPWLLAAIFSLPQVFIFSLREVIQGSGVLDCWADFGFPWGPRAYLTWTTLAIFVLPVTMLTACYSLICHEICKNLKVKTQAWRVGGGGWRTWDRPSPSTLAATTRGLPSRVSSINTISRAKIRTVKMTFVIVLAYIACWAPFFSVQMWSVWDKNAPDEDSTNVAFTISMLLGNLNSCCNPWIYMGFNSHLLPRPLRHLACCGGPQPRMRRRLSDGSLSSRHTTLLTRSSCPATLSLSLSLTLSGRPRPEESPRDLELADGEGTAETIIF
Method: The purpose of the assay was to determine the inhibitory effect of synthesized compounds on the Vasopressin V1b receptor. The assay was performed in Chinese Hamster Ovary (CHO) cells expressing the human Arginine Vasopressin Receptor 1b (AVPR1b). Arginine Vasopressin (AVP) evokes an increase in intracellular calcium in CHO-AVPR1b cells which is measured in a fluorescence assay on the FLIPR^TETRA using calcium sensitive dyes. Test compounds were assessed for their ability to affect the magnitude of the response to AVP, with antagonists showing a concentration-dependent reduction in the AVP-mediated fluorescence.
CHO-AVPR1b cells were maintained in routine culture in T175 Flasks at 37° C., 5% CO2. The growth medium consisted of Ham's F12 media supplemented with 10% v/v fetal bovine serum, 1× non-essential amino acids, and 0.4 mg/ml Geneticin G418.
Cells were harvested from T175 flasks when they were 80-90% confluent by first washing the cell monolayer with PBS and then dissociated using trypsin 0.05%/EDTA (3 mL for a T175 Flask). The flasks were incubated at room temperature until the cells detached. To the cell suspension, 10 ml of growth media was added and the cell density determined using the Vi-Cell automated cell counter. The cells were spun at 1000 rpm for 3 minutes, then the supernatant was carefully removed and discarded. The cell pellet was re-suspended at 6.0e^5 cells/ml in growth media. 25 μL of cells in growth media was dispensed into each well (15,000 cells per well) of a poly-D-lysine coated black, clear bottomed, 384-well plate. The plates were incubated at 37° C., 5% CO2 overnight.
At the start of each assay day, the potency of AVP was assessed and an EC80 concentration determined for subsequent compound profiling. Assays were performed using a two-step addition protocol on the FLIPR^TETRA; first addition of 5 μl of control or test compound at 10× final in assay buffer with 15 min incubation at 37° C., 5% CO2 followed by 10 μl of AVP at 6× final concentration in assay buffer. Changes in fluorescence were monitored for 3 min after both additions on the FLIPR^TETRA using 470-495 nm excitation and 515-575 nm emission wavelengths. The assay buffer consisted of HBSS (+Ca/+Mg) supplemented with 20 mM HEPES, and for the preparation of the AVP agonist only, 0.1% w/v bovine serum albumin. The assay was initiated by the removal of growth media from the cells and replacement with 45 μl of Calcium-6 dye (Molecular Devices) prepared at 1× in assay buffer. Cells were loaded with dye for 60-90 min at 37° C., 5% CO2 before initiation of the FLIPR^TETRA protocol. […] For compound profiling, test compounds were first serially diluted in DMSO (10-point curve, 1:3 dilutions) then diluted 33.3-fold in assay buffer prior to addition to the dye loaded cells on the FLIPR^TETRA. At the end of the incubation period 10 μl of AVP in assay buffer containing 0.1% BSA was added at the previously determined EC80 concentration.
In-plate controls for the assay included a Nelivaptan concentration-response curve as the reference V1b antagonist and an AVP concentration-response curve to confirm the reproducibility of the EC80 used for the compound challenge.

| SMILES | IC50 [nM] |
| --- | --- |
| CC1Cc2cc(Cl)ccc2N1C(=O)N1CC2(C1)CN(c1ccc(F)cn1)C2 (stereo not drawn) [8-16] | ≥ 1000 |
| COc1ccc2c(c1)OCCN2C(=O)N1CC2(C1)CN(c1ccc(F)cn1)C2 [9-2] | ≥ 1000 |
| CC1CN(C(=O)N2CC3(C2)CN(c2ccc(F)cn2)C3)c2ccc(Cl)cc2O1 (stereo not drawn) [9-3] | ≥ 1000 |
| O=C(N1CC2(C1)CN(c1ccc(F)cn1)C2)N1CCOc2cc(F)c(F)cc21 [9-6] | ≥ 1000 |
| O=C(N1CC2(C1)CN(c1ccc(F)cn1)C2)N1CCOc2cc(Cl)ccc21 [9-7] | ≥ 1000 |
| CCC1COc2cc(Cl)ccc2N1C(=O)N1CC2(C1)CN(c1ccccn1)C2 (stereo not drawn) [11-1, (7-chloro-3-ethyl-2,3-dihydro-4H-benzo[b][1,4]oxazin-4-yl)(6-(pyridin-2-yl)-2,6-diazaspiro[3.3]heptan-2-yl)methanone] | ≥ 1000 |
| O=C(N1CC2(C1)CN(c1ccc(F)cn1)C2)N1CCC(O)c2cc(Cl)ccc21 (stereo not drawn) [13-1, (6-chloro-4-hydroxy-3,4-dihydroquinolin-1(2H)-yl)(6-(5-fluoropyridin-2-yl)-2,6-diazaspiro[3.3]heptan-2-yl)methanone] | ≥ 1000 |
| O=C(N1CC2(C1)CN(c1cnccn1)C2)N1CCC(O)c2cc(Cl)ccc21 (stereo not drawn) [13-3] | ≥ 1000 |
| O=C(N1CC2(C1)CN(c1ccc(F)cn1)C2)N1CCC(F)c2cc(Cl)ccc21 (stereo not drawn) [14-1, (6-chloro-4-fluoro-3,4-dihydroquinolin-1(2H)-yl)(6-(5-fluoropyridin-2-yl)-2,6-diazaspiro[3.3]heptan-2-yl)methanone] | ≥ 1000 |
| O=C(N1CC2(C1)CN(c1ccc(F)cn1)C2)N1CCC(F)(F)c2cc(Cl)ccc21 [17-1, (6-chloro-4,4-difluoro-3,4-dihydroquinolin-1(2H)-yl)(6-(5-fluoropyridin-2-yl)-2,6-diazaspiro[3.3]heptan-2-yl)methanone] | ≥ 1000 |
| CC1COc2cc(Cl)ccc2N1C(=O)N1CC2(C1)CN(c1noc3cccnc13)C2 (stereo not drawn) [18-3] | ≥ 1000 |
| CC1COc2cc(Cl)ccc2N1C(=O)N1CC2(C1)CN(c1cccnc1)C2 (stereo not drawn) [20-1, (7-chloro-3-methyl-2,3-dihydro-4H-benzo[b][1,4]oxazin-4-yl)(6-(pyridin-3-yl)-2,6-diazaspiro[3.3]heptan-2-yl)methanone] | ≥ 1000 |
| CC1COc2cc(Cl)ccc2N1C(=O)N1CC2(C1)CN(c1cc(C#N)ccn1)C2 (stereo not drawn) [20-6] | ≥ 1000 |
| Cc1nc(N2CC3(CN(C(=O)N4c5ccc(Cl)cc5OCC4C)C3)C2)ncc1F (stereo not drawn) [20-7] | ≥ 1000 |
| COc1ccnc(N2CC3(CN(C(=O)N4c5ccc(Cl)cc5OCC4C)C3)C2)c1 (stereo not drawn) [20-8] | ≥ 1000 |
| COc1ccnc(N2CC3(CN(C(=O)N4c5ccc(Cl)cc5OCC4C)C3)C2)n1 (stereo not drawn) [20-9] | ≥ 1000 |
| Cc1nccnc1N1CC2(CN(C(=O)N3c4ccc(Cl)cc4OCC3C)C2)C1 (stereo not drawn) [20-10] | ≥ 1000 |
| Cc1ccnc(N2CC3(CN(C(=O)N4c5ccc(Cl)cc5OCC4C)C3)C2)n1 (stereo not drawn) [20-12] | ≥ 1000 |
| Cc1cnc(N2CC3(CN(C(=O)N4c5ccc(Cl)cc5OCC4C)C3)C2)nc1 (stereo not drawn) [20-13] | ≥ 1000 |

Now from value to compound:

| IC50 [nM] | SMILES |
| --- | --- |
| ≥ 1000 | CC1COc2cc(Cl)ccc2N1C(=O)N1CC2(C1)CN(c1cccnn1)C2 (stereo not drawn) [9-1, (7-chloro-3-methyl-2,3-dihydro-4H-benzo[b][1,4]oxazin-4-yl)(6-(pyridazin-3-yl)-2,6-diazaspiro[3.3]heptan-2-yl)methanone] |
| ≥ 1000 | CC1COc2cc(F)ccc2N1C(=O)N1CC2(C1)CN(c1ccc(F)cn1)C2 (stereo not drawn) [12-1, (7-fluoro-3-methyl-2,3-dihydro-4H-benzo[b][1,4]oxazin-4-yl)(6-(5-fluoropyridin-2-yl)-2,6-diazaspiro[3.3]heptan-2-yl)methanone] |
| ≥ 1000 | CC1COc2cc(F)ccc2N1C(=O)N1CC2(C1)CN(c1ncccn1)C2 (stereo not drawn) [18-1, (7-fluoro-3-methyl-2,3-dihydro-4H-benzo[b][1,4]oxazin-4-yl)(6-(pyrimidin-2-yl)-2,6-diazaspiro[3.3]heptan-2-yl)methanone] |
| ≥ 1000 | CC1COc2cc(F)c(F)cc2N1C(=O)N1CC2(C1)CN(c1ncccn1)C2 (stereo not drawn) [19-1, (6,7-difluoro-3-methyl-2,3-dihydro-4H-benzo[b][1,4]oxazin-4-yl)(6-(pyrimidin-2-yl)-2,6-diazaspiro[3.3]heptan-2-yl)methanone] |
| ≥ 1000 | CC1COc2cc(Cl)c(F)cc2N1C(=O)N1CC2(C1)CN(c1ncccn1)C2 (stereo not drawn) [19-2] |
| ≥ 1000 | CC1COc2cc(F)c(F)cc2N1C(=O)N1CC2(C1)CN(c1cccnn1)C2 (stereo not drawn) [19-3] |
| ≥ 1000 | CC1COc2cc(Cl)c(F)cc2N1C(=O)N1CC2(C1)CN(c1cccnn1)C2 (stereo not drawn) [19-4] |
| ≥ 1000 | CC1COc2cc(F)c(F)cc2N1C(=O)N1CC2(C1)CN(c1ccc(F)cn1)C2 (stereo not drawn) [19-5] |
| ≥ 1000 | CC1COc2cc(Cl)c(F)cc2N1C(=O)N1CC2(C1)CN(c1cccnc1)C2 (stereo not drawn) [19-6] |
| ≥ 1000 | Cc1cncc(N2CC3(CN(C(=O)N4c5ccc(F)cc5OCC4C)C3)C2)n1 (stereo not drawn) [20-2] |
| ≥ 1000 | Cc1ccnc(N2CC3(CN(C(=O)N4c5ccc(Cl)cc5OCC4C)C3)C2)c1 (stereo not drawn) [20-11] |
